Reference: patent publication US5041557A, “Furan derivatives” (Laboratorios Vinas S.A., priority 1989, dated 1991)

Key:
[1] = tested on: ethanol induced ulcers (gastric mucous membrane); assay: Necrosing agent model: ethanol induced ulcers in the rat; assay type: in vivo; conditions: for mm lesion (lesion index, mm of ulcer) / % inhibition (ulcer inhibition percentage versus control): ethanol, LV-208 100 mg/kg, Rn equimolar dose; for mm lesion (lesion index, mm of ulcer): mean ± error of the mean, control 82.0 ± 10.1, LV-208: p < 0.001 versus control, p < 0.05 versus Rn (t test); for % inhibition (ulcer inhibition percentage versus control): versus control group; for protection against the ethanol induced aggression: rat, equimolar doses of LV-208 and Rn, result in words
Protocol: (§1) As stated above, the formula I compounds have shown a potent antiulcer activity. Thus the inhibition of histamine induced gastric secretion "in vivo" in rats, after intraperitoneal administration of these zinc-furan compounds at dose levels of 0.5; 1; 2 and 4 mg/kg reaches pH recovery levels, increasing with the dose, of 100%.
Particularly, the antiulcer activity of the compound LV-208 has been studied with evaluation of the secretion inhibiting and gastric mucous membrane protecting activity in the rat.
The activity of LV-208 was compared with the activity of Rn at equimolar doses using the necrosing agent model, ethanol in this case, described by Robert et al. (Gastroenterology, 77: 433, 1979), versus a control group administered excipient.
The following Table gives the lesion indexes (in mm of ulcer) of the three groups studied, as well as the ulcer inhibition percentages of the treated groups versus the control group (mean values±the error of the mean).

[2] = tested on: histamine induced gastric acid secretion; assay: "In vivo" histamine induced gastric acid secretion model in the rat; conditions: Wistar rats, intraperitoneal
Protocol: as §1
This activity was measured in Wistar rats having a body weight of 240±20 g. An endovenous perfusion of a histamine solution stimulated the gastric secretion producing a drop in the intragastric pH. LV-208 was thereafter administered intraperitoneally and the increase in the gastric pH that this produced was evaluated. An ED50 of 0.8 mg/kg and recovery of 100% at a dose of 4 mg/kg was obtained by a dose-response curve.

SMILES | mm lesion (lesion index, mm of ulcer) [1] [mm] | % inhibition (ulcer inhibition percentage versus control) [1] [%] | protection against the ethanol induced aggression [1] | recovery (gastric pH) ([2]; dose of 4 mg/kg) [%] | ED50 (increase in gastric pH, inhibition of histamine induced gastric acid secretion) ([2]; endovenous histamine perfusion, dose-response curve) [mg/kg]
CNC(=C[N+](=O)[O-])NCCSCc1ccc(CN(C)C)o1 [Rn, N,N-dimethyl-5-(2-(1-methylamino-2-nitrovinylamino)ethylthiomethyl)furfurylamine, reference compound] | 40.6 ± 15.0 | 50.5 | discreet protection |  | 
CNC(=C[N+](=O)[O-])NCCSCc1ccc(CN(C)C)o1.[Cl][Zn][Cl] [LV-208] | 4.8 ± 1.8 | 94.1 | practically complete protection | 100 | 0.8
